{"source": "patent US20090215859A1", "about": "“Compositions and methods for modulating dhr96” (priority 2004, published 2009)", "key": {"[1]": {"molecular_target": "T1, GAL4-USP fusion protein (Drosophila melanogaster, UniProt P20153+P34021)", "T1 construct": "host or cells: tissues dissected from transgenic Drosophila larvae", "T1 sequence (P20153 239-498 limits assumed)": "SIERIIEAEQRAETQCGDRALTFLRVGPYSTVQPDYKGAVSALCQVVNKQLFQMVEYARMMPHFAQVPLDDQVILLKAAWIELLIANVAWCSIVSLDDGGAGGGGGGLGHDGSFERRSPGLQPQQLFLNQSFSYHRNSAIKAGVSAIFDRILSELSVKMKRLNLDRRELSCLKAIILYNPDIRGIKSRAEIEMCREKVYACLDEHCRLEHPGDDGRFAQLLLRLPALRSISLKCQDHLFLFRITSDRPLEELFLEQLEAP", "T1 sequence (P34021 1-878)": "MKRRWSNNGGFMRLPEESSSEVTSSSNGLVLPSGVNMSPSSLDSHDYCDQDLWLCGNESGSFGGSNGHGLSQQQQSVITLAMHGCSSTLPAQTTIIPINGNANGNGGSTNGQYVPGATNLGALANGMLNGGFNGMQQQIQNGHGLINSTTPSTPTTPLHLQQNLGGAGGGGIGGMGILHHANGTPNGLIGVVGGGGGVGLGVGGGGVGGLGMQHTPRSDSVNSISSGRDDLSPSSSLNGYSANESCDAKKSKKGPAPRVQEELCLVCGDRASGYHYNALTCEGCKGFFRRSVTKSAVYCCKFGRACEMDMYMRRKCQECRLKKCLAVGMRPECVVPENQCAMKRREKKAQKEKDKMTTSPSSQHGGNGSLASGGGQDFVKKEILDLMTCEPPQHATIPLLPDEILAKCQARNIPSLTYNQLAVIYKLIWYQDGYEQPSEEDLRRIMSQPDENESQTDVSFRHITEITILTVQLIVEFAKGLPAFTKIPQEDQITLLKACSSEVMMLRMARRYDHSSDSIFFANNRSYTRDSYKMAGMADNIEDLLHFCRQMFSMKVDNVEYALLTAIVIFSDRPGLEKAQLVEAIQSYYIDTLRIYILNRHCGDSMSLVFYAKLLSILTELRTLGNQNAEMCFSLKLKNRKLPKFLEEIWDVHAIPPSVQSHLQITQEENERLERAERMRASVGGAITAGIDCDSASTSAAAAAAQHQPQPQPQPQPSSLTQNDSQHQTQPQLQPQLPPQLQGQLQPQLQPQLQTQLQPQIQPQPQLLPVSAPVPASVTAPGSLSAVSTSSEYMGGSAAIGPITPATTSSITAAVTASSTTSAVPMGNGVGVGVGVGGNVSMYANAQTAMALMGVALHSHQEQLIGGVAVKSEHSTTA", "details": "dependent on its EcR partner; cited from earlier work"}, "[2]": {"test_system": "DHR38", "details": "cultured larval organs; cited from earlier work"}, "[3]": {"test_system": "wild type (Canton S) and DHR96 mutant adult flies", "assay": "Toxicity assay: adult flies exposed to DDT in 5% sucrose on filter paper, survival scored", "type": "in vivo, Drosophila melanogaster", "procedure": "A time course is shown. 20 wild type or DHR96^E25 mutant flies were treated with a high concentration of DDT (100 ng/μl) and assayed for survival every hour up to 10 hours. Each assay (A+B) was done in triplicate to determine the standard deviation as shown by the error bars.\n(§1) A dose response curve is shown. Twenty wild type or DHR96^E25 mutant flies were exposed to eight DDT concentrations, from 0.78 to 100 ng/μl, and then scored for survival 10 hours later. A similar test was conducted for sensitivity to tebufenizide (FIG. 11C) using larvae raised on food supplemented with the drug.\nAdult flies were raised on standard cornmeal/agar food and starved overnight under humid conditions at 25 0 C before treatment with DDT. A DDT stock solution was prepared by dissolving crystalline DDT (Sigma) in 100% ethanol. Appropriate DDT dilutions were made by diluting the DDT stock with 5% sucrose and pipetting 275 μl of the solution onto a strip of Whatman filter paper inside a small glass scintillation vial. Twenty adult flies were placed in each vial which was plugged with cotton. Mortality was scored 10 hours later at room temperature. For each DDT concentration, three replicates, each of twenty adult flies, were used. For the time course assay, 100 ng/μl of DDT was used and mortality scored every hour for 10 hours.\nAs a test of DHR96 acting in a xenobiotic pathway, DHR96 mutants were tested for sensitivity to the pesticide DDT. Adult wild type flies (Canton S) and DHR96^16A were exposed or DHR96^E25 flies to varying concentrations of DDT and recorded survival rates after a fixed time.\n(§2) The adult Canton S flies and the DHR96E25 outcrossed lines were exposed to varying concentrations of drug and recorded effects after a fixed time (FIG. 11). DDT was assayed by starving young healthy adult flies overnight and then transferring them to vials, in three groups of 20 flies each, with filter paper soaked with 5% sucrose alone or 5% sucrose and DDT at different concentrations. The number of living flies was scored after 23 hours. […] Tebufenozide was administered to larvae in the food, and the number of surviving adult flies was scored."}, "[4]": {"test_system": "Cyp6g1", "assay": "Cyp6g1 induction by DDT in Canton S flies", "type": "in vivo, Drosophila melanogaster", "details": "one experiment", "text": "Validation can be conducted on selected genes, covering the different classes of detoxification pathways as well as new players that identified. Similar microarray studies using at least two other compounds, depending on which compounds show an effect in the viability and behavioral assays. It will be confirmed that wild type Canton S flies show a response to DDT using Cyp12d1 and other P450 genes as probes for northern blot hybridization. […] Other pesticides can also be surveyed for effects on a select group of Cyp gene targets to identify other compounds for use in comparative microarray profiling. […] Determining the transcriptional response to more than one xenobiotic compound can provide an initial impression of how insects respond to different toxins in their environment. […] Alternatively, the genetic response may be fine-tuned to combat specific xenobiotic compounds."}, "[5]": {"details": "solvent or supplied form; cited from earlier work"}, "[6]": {"molecular_target": "T2, PXR (Homo sapiens, UniProt O75469)", "T2 sequence (O75469 1-434)": "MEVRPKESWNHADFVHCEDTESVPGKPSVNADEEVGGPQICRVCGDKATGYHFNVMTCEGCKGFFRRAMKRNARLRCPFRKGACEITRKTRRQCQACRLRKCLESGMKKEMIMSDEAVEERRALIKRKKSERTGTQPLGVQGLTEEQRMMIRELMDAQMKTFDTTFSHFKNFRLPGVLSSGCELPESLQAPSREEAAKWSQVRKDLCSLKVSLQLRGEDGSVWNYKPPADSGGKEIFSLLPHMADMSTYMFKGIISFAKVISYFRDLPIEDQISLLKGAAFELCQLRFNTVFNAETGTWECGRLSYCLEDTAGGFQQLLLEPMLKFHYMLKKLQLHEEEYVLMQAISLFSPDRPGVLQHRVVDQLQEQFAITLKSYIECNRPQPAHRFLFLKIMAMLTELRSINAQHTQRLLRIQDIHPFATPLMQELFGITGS", "details": "cited from earlier work"}, "[7]": {"test_system": "Canton S and outcrossed DHR96E25 mutant larvae", "assay": "Tebufenozide administered to larvae in the food, surviving adult flies scored", "type": "in vivo, Drosophila melanogaster", "details": "larvae raised on food supplemented with the drug", "procedure": "as §1, §2\nThe above assays are for testing the effect of xenobiotics on adult flies. Compounds can also be tested for their larvicidal effects by administering them in the food to staged populations of larvae (Grant et al. Bull. Envir. Contam. Tox. 69:35-40, 2002). DHR96 and Canton S control flies are maintained on normal cornmeal/molasses agar supplemented with yeast. Egg lays are collected overnight from these stocks and used to innoculate fresh vials of food supplemented with a specific concentration of the drug to be tested. […]"}, "[8]": {"molecular_target": "T3, GAL4-DHR96 fusion protein (Drosophila melanogaster, UniProt Q24143)", "T3 construct": "expressed in transfected cells; host or cells: transgenic Drosophila third instar larvae (hs-GAL4-DHR96; UAS-lacZ), dissected organs in culture", "T3 sequence (Q24143 99-723)": "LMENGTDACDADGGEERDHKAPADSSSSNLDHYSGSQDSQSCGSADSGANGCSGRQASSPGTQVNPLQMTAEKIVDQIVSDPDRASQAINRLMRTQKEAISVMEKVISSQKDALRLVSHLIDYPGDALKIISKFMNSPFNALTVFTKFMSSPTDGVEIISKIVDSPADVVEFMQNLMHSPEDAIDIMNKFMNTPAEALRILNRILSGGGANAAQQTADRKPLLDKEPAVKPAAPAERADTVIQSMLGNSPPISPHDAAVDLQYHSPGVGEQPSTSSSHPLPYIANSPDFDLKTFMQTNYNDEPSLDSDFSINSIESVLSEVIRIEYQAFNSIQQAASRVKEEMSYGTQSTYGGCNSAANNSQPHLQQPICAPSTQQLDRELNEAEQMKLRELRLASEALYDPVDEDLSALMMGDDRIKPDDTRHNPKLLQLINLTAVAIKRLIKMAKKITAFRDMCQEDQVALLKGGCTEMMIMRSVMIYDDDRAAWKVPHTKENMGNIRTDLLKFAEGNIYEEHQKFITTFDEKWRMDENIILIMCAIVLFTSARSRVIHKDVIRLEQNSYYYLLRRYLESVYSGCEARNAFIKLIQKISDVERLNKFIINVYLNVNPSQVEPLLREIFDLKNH", "assay": "GAL4-LBD activation assay in cultured third instar larval organs (UAS-lacZ, Xgal staining)", "type": "cell-based", "details": "organs of heat-induced hs-GAL4-DHR96; UAS-lacZ third instar larvae cultured with 1×10^−5 M tebufenozide", "text": "A gene fusion of the GAL4 DNA binding domain (DBD) and DHR96 ligand binding domain (LBD) is expressed upon heat-induction of the hsp70 promoter. The resultant fusion protein can bind to GAL4 response elements (UAS) on a seperate transgenic construct, but will only activate lacZ transcription in the presence of an appropriate ligand and/or co-factors (a ligand is shown). β-galactosidase expression is detected as the substrate from an Xgal staining reaction.\nThird instar larvae were heat-treated to induce GAL4-DHR96 expression, dissected, and organs were cultured in the presence of 1×10^−5 M tebufenozide. UAS-lacZ reporter gene expression was detected by Xgal staining. […]\nDHR96 activation can be assayed for by using a method established to follow the activation status of a nuclear receptor ligand binding domain (LBD) in a developing animal. […] Expression of β-galactosidase can be detected by histochemical staining using X-gal as a substrate, generating a blue dye (FIGS. 13, 14). […]\nAn advantage of the GAL4-LBD system is that it can be used in tissues dissected from transgenic larvae to test specific compounds for their ability to activate the fusion protein. […] A similar assay can be used to test the ability of xenobiotic compounds to activate the GAL4-DHR96 fusion protein in cultured larval organs, using either UAS-lacZ or UAS-GFP as a readout. […]"}, "[9]": {"details": "living flies scored after 23 hours"}}, "note": "“Also recorded” adds a separate entry of the source.", "data": [{"compound": "CC(C)(O)CC[C@@H](O)[C@](C)(O)[C@H]1CC[C@@]2(O)C3=CC(=O)[C@@H]4C[C@@H](O)[C@@H](O)C[C@]4(C)[C@H]3CC[C@]12C", "note": "[20-hydroxyecdysone]", "values": [{"measurement": "Activation of the GAL4-USP fusion protein", "setting": "[1]", "result": "potent activator"}, {"measurement": "Activation of DHR38 in the GAL4-LBD system", "setting": "[2]", "result": "not"}]}, {"compound": "Clc1ccc(C(c2ccc(Cl)cc2)C(Cl)(Cl)Cl)cc1", "note": "[DDT]", "values": [{"measurement": "Speed of death at a fixed concentration of DDT, DHR96 homozygotes vs wild type flies", "setting": "[3]; 100 ng/μl DDT, mortality scored every hour for 10 hours", "result": "died more rapidly"}, {"measurement": "Sensitivity to DDT (survival after a fixed time at varying concentrations), DHR96 mutants compared to control animals", "setting": "[3]; adult DHR96^16A or DHR96^E25 flies vs Canton S, 0.78 to 100 ng/μl DDT, scored 10 hours later", "result": "more sensitive"}, {"measurement": "Sensitivity to DDT treatment, original DHR96E25 mutant line vs Canton S", "setting": "[3]; [9]", "result": "more sensitive"}, {"measurement": "Sensitivity to DDT, outcrossed DHR96E25 line vs Canton S", "setting": "[3]; [9]", "result": "no such sensitivity"}, {"measurement": "Cyp6g1 induction", "setting": "[4]", "result": "low level"}, {"measurement": "Solubility", "setting": "[5]", "result": "ethanol"}]}, {"compound": "COc1cc2c(cc1O)CCN[C@]21CS[C@@H]2c3c(OC(C)=O)c(C)c4c(c3[C@H](COC1=O)N1[C@@H]2[C@H]2c3c(cc(C)c(OC)c3O)C[C@@H]([C@@H]1O)N2C)OCO4", "note": "[ecteinascidin-743]", "values": [{"measurement": "Action on PXR", "setting": "[6]", "result": "antagonist"}]}, {"compound": "CCc1ccc(C(=O)NN(C(=O)c2cc(C)cc(C)c2)C(C)(C)C)cc1", "note": "[tebufenozide]", "values": [{"measurement": "Sensitivity of the outcrossed DHR96E25 mutant to tebufenozide (surviving adult flies)", "setting": "[7]", "result": "slight sensitivity"}, {"measurement": "Activation of GAL4-DHR96 (UAS-lacZ reporter gene expression)", "setting": "[8]", "result": "activated; also recorded: reproducible and distinct pattern of activation"}]}]}
